Test results: article PMC10096180, “Half-Sandwich Type Platinum-Group Metal Complexes of C-Glucosaminyl Azines: Synthesis and Antineoplastic and Antimicrobial Activities” (Molecules, 2023)
Like-named read-outs stand apart in the source and are kept apart here. Values belong to the compound of their own block, whether it stands above or below them.

Key:
A2780 cells [1] = experiment: MTT reduction assay, early toxicity, 4 h treatment; format: cell-based
Outline: (§1)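 Cells plated the day before, exposed to compounds for 4 h, then MTT 0.5 mg/mL for 40–60 min at 37 °C; reduced dye dissolved in DMSO, read at 540 nm relative to vehicle wells. IC50 by four-parameter fit; otherwise % inhibition at 100 μM.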

[2] = system: primary human dermal fibroblasts; experiment: MTT reduction assay, early toxicity, 4 h treatment; format: cell-based; conditions: up to 100 μM
Outline: as §1

A2780 cells [3] = experiment: SRB binding assay, cytostasis, 48 h treatment; format: cell-based; conditions: for A2780 SRB Max Inhibition: up to 100 μM, ND = not detectable
Outline: (§2)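 Ovarian cancer A2780 cells and primary human dermal fibroblasts treated 48 h, TCA-fixed, SRB-stained, absorbance at 540 nm relative to vehicle. IC50 from four-parameter fit when a plateau was reached or inhibition exceeded 90%; otherwise percent inhibition at 100 μM.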

Capan2 cells = experiment: SRB assay, 48 h; format: cell-based
Experimental: (§3) Figure 8 Assessment of free ligand 3a and complex Ru-3a for cytostatic activity in multiple carcinomas. […] Cells were treated with the compounds in the concentrations indicated for 48 h; then, an SRB assay was performed. Data are represented as average ± SD from three biological replicates; individual assays were performed in duplicates. Values were normalized for vehicle-treated cells; absorbance for vehicle-treated cells equals 1. Statistical significance was assessed using a one-way ANOVA test comparing all values to the lowest concentration of a compound. Before the test, normality was assessed using the Shapiro–Wilk test, and the post hoc test was chosen accordingly. […] An SRB assay measures protein content of cells in correlation with the cell number in an assay well and can therefore be used to assess cell proliferation or long-term cytostasis. Cells were seeded in 96-well plates the day before the assay. Cells were treated with the compounds for 48 h. Then medium was removed, and cells were fixed with 10% trichloroacetic acid. […] Stained cells were washed in 1% acetic acid 5 times; acetic acid was removed, and cells were left to dry. Protein-bound SRB was released by adding 100 μL 10 mM Tris base. Plates were measured in a plate photometer (Thermo Scientific Multiscan GO spectrophotometer, Waltham, MA, USA) at 540 nm. On each plate, wells were designed to contain vehicle-treated cells. […] Statistical analysis was performed using version 8.0.1 of GraphPad Prism. Values were tested for normal distribution using the Shapiro–Wilk normality test. […] In other cases, the percentage of inhibition was taken for the maximum concentration (100 μM).

ID8 cells = experiment: SRB assay, 48 h; format: cell-based
Experimental: as §3

MCF7 cells = experiment: SRB assay, 48 h; format: cell-based
Experimental: as §3

U251 cells = experiment: SRB assay, 48 h; format: cell-based
Experimental: as §3

[4] = system: Enterococcus faecalis (ATCC29212); experiment: Broth microdilution MIC, reference strain; format: cell-based; conditions: 24 h, tested range 0.08–40 μM, read-out: MIC E. faecalis ATCC 29,212
Outline: (§4)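 EUCAST broth microdilution in Mueller–Hinton broth, inoculum 5.0 × 10^5 CFU/mL, compounds at 0.08–40 μM (twofold dilutions), 24 h at 37 °C. Plates read visually; MIC taken as lowest concentration giving ≥50% inhibition versus drug-free growth control.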

[5] = system: Staphylococcus aureus (ATCC29213); experiment: Broth microdilution MIC, reference strain; format: cell-based; conditions: 0.08–40 μM, read-out: MIC S. aureus ATCC 29213
Outline: as §4

[6] = system: vancomycin-resistant Enterococcus (VRE) clinical isolates; experiment: Broth microdilution MIC, clinical VRE isolates; format: cell-based, E. faecium; conditions: 24 h, 0.08–40 μM
Outline: (§5)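 S. aureus and E. faecium clinical isolates (Debrecen, 2018–2020; MALDI-TOF-identified) tested by EUCAST broth microdilution in Mueller–Hinton broth at 5.0 × 10^5 CFU/mL across 0.08–40 μM (twofold). After 24 h at 37 °C, visually read; MIC is the lowest concentration giving ≥50% inhibition versus growth control. At least two runs in duplicate.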

[7] = system: methicillin-resistant Staphylococcus aureus (MRSA) clinical isolates; experiment: Broth microdilution MIC, clinical MRSA isolates; format: cell-based; conditions: 24 h, 0.08–40 μM
Outline: as §5

A2780 (ovarian) = conditions: Figure 1, complex Ia; read-out: IC50 A2780 (ovarian, cisplatin resistant); cited from earlier work
ID8 (ovarian) = system: ID8 (ovarian); design: method as in PMID 36793764, PMID 34638791, PMID 35054999; conditions: Figure 1, complex Ia; cited from earlier work
[8] = system: Capan2 (pancreatic adenocarcinoma); design: method as in PMID 36793764, PMID 34638791, PMID 35054999; conditions: Figure 1, complex Ia; cited from earlier work
Saos (sarcoma) = system: Saos (sarcoma); design: method as in PMID 36793764, PMID 34638791, PMID 35054999; conditions: Figure 1, complex Ia; cited from earlier work
[9] = system: Gram-positive multiresistant bacteria (Staphylococcus aureus, Enterococcus species); design: method as in PMID 35494644, PMID 36793764; conditions: Figure 1, Staphylococcus aureus; cited from earlier work
[10] = system: primary human dermal fibroblasts; experiment: SRB binding assay, cytostasis, 48 h treatment; format: cell-based; conditions: up to 100 μM, ND = not detectable
Outline: as §2

[11] = Distribution coefficient (logD), n-octanol-PBS; format: physicochemical; conditions: n-octanol-PBS (pH = 7.4) system
Experimental: The logD values of the newly synthesized complexes were determined according to a procedure described in our previous publications. page 64: Ir-7b +1.17 Rh-7b +1.41 Ru-7c +1.31 Os-7c +1.59 Ir-7c +1.40 Rh-7c +1.13 Ru-7d +1.26 Os-7d +1.42 Ir-7d +1.30 Rh-7d +1.04 Ru-7e +2.22 Os-7e +2.21 Ir-7e +1.39 Rh-7e +1.66 *logD was determined in an n-octanol-PBS (pH = 7.4) system 64 (14 pictures or pasted objects on this page, not shown here)

[12] = inhibition at maximum concentration (100 μM) where no plateau, ND = not detectable
[13] = clinical isolate 25,051 VRE, read-out: MIC 25,051 VRE
[14] = clinical isolate 25,498 VRE, read-out: MIC 25,498 VRE
[15] = clinical isolate 27,085 VRE, read-out: MIC 27,085 VRE
[16] = clinical isolate 20,426 MRSA, read-out: MIC 20,426 MRSA
[17] = clinical isolate 24,035 MRSA, read-out: MIC 24,035 MRSA
[18] = clinical isolate 24,268 MRSA, read-out: MIC 24,268 MRSA
[19] = clinical isolate 24,272 MRSA, read-out: MIC 24,272 MRSA
[20] = clinical isolate 24,328 MRSA, read-out: MIC 24,328 MRSA
[21] = clinical isolate 24,408 MRSA, read-out: MIC 24,408 MRSA

Compound: N[C@@H]1[C@@H](OCc2ccccc2)[C@H](OCc2ccccc2)[C@@H](COCc2ccccc2)O[C@H]1c1ccccn1 [Complex 3a, 2-(2′-Amino-2′-deoxy-3′,4′,6′-tri-O-benzyl-β-D-glucopyranosyl)pyridine]
- inhibition at 100 µM (A2780 cells [1]; Homo sapiens, inhibition at maximum concentration (100 μM) where no plateau, ND = not detectable, read-out: A2780 MTT Max Inhibition): 70.2%
- Fibroblast MTT Max Inhibition [2]: 32.22%
- IC50 (A2780 cells [3]): 36.2 µM
- IC50 (A2780 cells [3]; Homo sapiens, A2780, 48 h): > 30 µM
- A2780 SRB Max Inhibition (A2780 cells [3]): >90%
- Capan2 SRB Max Inhibition (Capan2 cells): >90%
- IC50 (Capan2 cells): 15 µM
- IC50 (Capan2 cells; Homo sapiens, Capan-2, 48 h): 10 to 30 µM
- IC50 (ID8 cells): 13.1 µM
- ID8 SRB Max Inhibition (ID8 cells): >90%
- IC50 (ID8 cells; Mus musculus, ID8, 48 h): 10 to 30 µM
- MCF7 SRB Max Inhibition (MCF7 cells): >90%
- U251 SRB Max Inhibition (U251 cells): >90%
- MIC ([4]; Enterococcus faecalis): > 40 µM
- MIC ([5]; Staphylococcus aureus, ATCC29213, 24 h): > 40 µM
- MIC ([6]; Enterococcus, clinical isolate 25,051 VRE, read-out: MIC 25,051 VRE): > 40 µM
- MIC ([6]; Enterococcus, clinical isolate 25,498 VRE, read-out: MIC 25,498 VRE): > 40 µM
- MIC ([6]; Enterococcus, clinical isolate 27,085 VRE, read-out: MIC 27,085 VRE): > 40 µM
- MIC ([7]; Staphylococcus aureus, clinical isolate 20,426 MRSA, read-out: MIC 20,426 MRSA): > 40 µM
- MIC ([7]; Staphylococcus aureus, clinical isolate 24,035 MRSA, read-out: MIC 24,035 MRSA): > 40 µM
- MIC ([7]; Staphylococcus aureus, clinical isolate 24,268 MRSA, read-out: MIC 24,268 MRSA): > 40 µM
- MIC ([7]; Staphylococcus aureus, clinical isolate 24,272 MRSA, read-out: MIC 24,272 MRSA): > 40 µM
- MIC ([7]; Staphylococcus aureus, clinical isolate 24,328 MRSA, read-out: MIC 24,328 MRSA): > 40 µM
- MIC ([7]; Staphylococcus aureus, clinical isolate 24,408 MRSA, read-out: MIC 24,408 MRSA): > 40 µM

Compound: Cc1ccc(C(C)C)cc1.F[P-](F)(F)(F)(F)F.O=C(OCC1OC(n2cc(-c3ccc4ccccc4n3)nn2)C(OC(=O)c2ccccc2)C(OC(=O)c2ccccc2)C1OC(=O)c1ccccc1)c1ccccc1.[Cl][Os+] (stereo not shown) [Ia]
- IC50 (A2780 (ovarian)): 0.43 µM
- IC50 (ID8 (ovarian)): 0.36 µM
- IC50 [8]: 1.35 µM
- IC50 (Saos (sarcoma)): 1.29 µM
- MIC on Gram-positive multiresistant bacteria [9]: 5 to 20 µM

Compound: Cc1c(C)c(C)[c-](C)c1C.F[P-](F)(F)(F)(F)F.N[C@@H]1[C@@H](OC(=O)c2ccccc2)[C@H](OC(=O)c2ccccc2)[C@@H](COC(=O)c2ccccc2)O[C@H]1c1ccccn1.[Cl][Rh+2] [Rh-7a]
- A2780 MTT Max Inhibition (A2780 cells [1]; [12]): 35.97%
- Fibroblast MTT Max Inhibition [2]: 27.02%
- IC50 (A2780 cells [3]): 18.2 µM
- A2780 SRB Max Inhibition (A2780 cells [3]): >90%
- Fibroblast SRB Max Inhibition [10]: 32.56%
- logD [11]: 1.20
- MIC [4]: >40 µM
- MIC ([5]; 24 h): >40 µM
- MIC [6, 13]: >40 µM
- MIC [6, 14]: >40 µM
- MIC [6, 15]: >40 µM
- MIC [7, 16]: >40 µM
- MIC [7, 17]: >40 µM
- MIC [7, 18]: >40 µM
- MIC [7, 19]: >40 µM
- MIC [7, 20]: >40 µM
- MIC [7, 21]: >40 µM

The remaining compounds from weak to strong by IC50 (A2780 cells [3]), led by results:

- IC50 (A2780 cells [3]): 8.58 µM
- Fibroblast SRB Max Inhibition [10]: 49.00%
- logD [11]: 2.15
- MIC [4]: 5 µM
- MIC ([5]; 24 h): 10 µM
- MIC [6, 13]: 5 µM
- MIC [6, 14]: 5 µM
- MIC [6, 15]: 10 µM
- MIC [7, 16]: 10 µM
- MIC [7, 17]: 10 µM
- MIC [7, 18]: 5 µM
- MIC [7, 19]: 5 µM
- MIC [7, 20]: 5 µM
- MIC [7, 21]: 5 µM
Compound: Cc1ccc(C(C)C)cc1.F[P-](F)(F)(F)(F)F.N[C@@H]1[C@@H](OC(=O)c2ccccc2)[C@H](OC(=O)c2ccccc2)[C@@H](COC(=O)c2ccccc2)O[C@H]1c1ccccn1.[Cl][Os+] [Os-7a]
- IC50 (A2780 cells [1]): 13.8 µM
- A2780 MTT Max Inhibition (A2780 cells [1]; [12]): >90%
- Fibroblast MTT Max Inhibition [2]: 65.18%
- A2780 SRB Max Inhibition (A2780 cells [3]): >90%

- IC50 (A2780 cells [3]): 4.11 µM
- Fibroblast SRB Max Inhibition [10]: 56.31%
- logD [11]: 1.15
- MIC [4]: 5 µM
- MIC ([5]; 24 h): 5 µM
- MIC [6, 13]: 5 µM
- MIC [6, 14]: 5 µM
- MIC [6, 15]: 5 µM
- MIC [7, 16]: 5 µM
- MIC [7, 17]: 5 µM
- MIC [7, 18]: 5 µM
- MIC [7, 19]: 5 µM
- MIC [7, 20]: 5 µM
- MIC [7, 21]: 5 µM
Compound: Cc1ccc(C(C)C)cc1.F[P-](F)(F)(F)(F)F.N[C@@H]1[C@@H](OC(=O)c2ccccc2)[C@H](OC(=O)c2ccccc2)[C@@H](COC(=O)c2ccccc2)O[C@H]1c1ccccn1.[Cl][Ru+] [Ru-7a]
- IC50 (A2780 cells [1]): 9.15 µM
- A2780 MTT Max Inhibition (A2780 cells [1]; [12]): >90%
- Fibroblast MTT Max Inhibition [2]: 65.18%
- A2780 SRB Max Inhibition (A2780 cells [3]): >90%
